{"source": "patent US20080287491A1", "about": "“Tetrahydroquinoline Derivative for Treating Nicotine Craving” (priority 2003, published 2008)", "key": {"[1]": {"system": "nicotine craving in smokers abstinent for 3 days from cigarettes", "experiment": "QSU-Brief nicotine craving questionnaire, single-dose enforced abstinence study", "assay_type": "in vivo, human", "settings": "single dose 120 mg iv", "experimental": "The ability of the compound of formula (I) or pharmaceutically acceptable salts thereof to reduce nicotine craving in smokers was measured by means of self-administered questionnaires on Smoking Craving/Urge-Brief (QSU-Brief), as described by Tiffany S T, & Christen A G Cox L S, Nicotine and Tobacco Research, 3: 7-16, 2001. The QSU-Brief is a specific craving scale that consists of 10 items scored on a scale from 1 to 7. The higher average score corresponds to the higher intensity of nicotine craving. The QSU-Brief has 2 factors: factor 1 refers to the anticipation of pleasure from smoke and factor 2 refers to anticipation of relief from negative affects of abstinence. The study investigated nicotine craving in smokers abstinent for 3 days from cigarettes (enforced abstinence model) receiving either a single dose 120 mg iv of the compound of formula (I) as meglumine salt (Compound) or a single dose of placebo. Self-administered questionnaires (QSU-Brief), were administered at pre-dose and 3, 6 and 12 hours post dose to evaluate craving."}, "[2]": {"system": "nicotine craving in smokers abstinent for 72 hours from cigarettes", "experiment": "QSU-Brief nicotine craving questionnaire, repeated-dose three-period crossover enforced abstinence study", "assay_type": "in vivo, human", "settings": "31 smoker volunteers; 120 mg/day intravenously for 7 days; 72 hours of abstinence from Day 5; FIG. 1", "experimental": "The ability of the compound of formula (I) or pharmaceutically acceptable salts thereof to reduce nicotine craving in smokers was measured by means of self-administered questionnaires on Smoking Craving/Urge-Brief (QSU-Brief), as described by Tiffany S T, & Christen A G Cox L S, Nicotine and Tobacco Research, 3: 7-16, 2001. The QSU-Brief is a specific craving scale that consists of 10 items scored on a scale from 1 to 7. The higher average score corresponds to the higher intensity of nicotine craving. The QSU-Brief has 2 factors: factor 1 refers to the anticipation of pleasure from smoke and factor 2 refers to anticipation of relief from negative affects of abstinence. A further study investigated nicotine craving in smokers abstinent for 72 hours from cigarettes (enforced abstinence model) receiving either repeated administrations of the compound of formula (I) as meglumine salt (Compound) or placebo. […] Each subject was exposed to 3 different experimental conditions: 1) Compound (120 mg/day) was administered intravenously for 7 days starting on Day 1 and quitted smoking abruptly on Day 5 for 72 hours (i.e. non-smoking period;) 2) Placebo was administered intravenously for 7 days starting on Day 1 and quitted smoking abruptly on Day 5 for 72 hours (i.e. non-smoking period;) 3) allowed to smoke for 7 consecutive days (i.e. free smoking period). […]"}}, "note": "Entries after “also recorded” stand apart in the source; their conditions may differ. Structures can show the parent of a compound that is named as a salt.", "data": [{"compound": "O=C(O)[C@H]1C/C(=C2/CCN(c3ccccc3)C2=O)c2ccc(Cl)cc2N1", "note": "[Compound, (2R,4E)-7-chloro-4-(2-oxo-1-phenyl-3-pyrrolidinylidene)-1,2,3,4-tetrahydro-2-quinolinecarboxylic acid, (2R,3R,4R,5S)-6-methylamino-hexane-1,2,3,4,5-pentanol (meglumine) salt (form 2)]", "values": [{"measurement": "QSU-Brief: Craving Factor 2 (average during abstinence)", "setting": "[1]; QSU-Brief items scored 1 to 7, pre-dose and 3, 6 and 12 hours post dose, placebo 4.0", "result": 3.6}, {"measurement": "Average craving factor 2 compared with placebo", "setting": "[1]; versus abstinent smokers receiving placebo", "result": "significant average lower craving factor 2"}, {"measurement": "Nicotine craving level (QSU-Brief) compared with placebo", "setting": "[2]", "result": "showed reduction in nicotine craving; also recorded: reduced the nicotine craving level"}]}]}
